In assay [1] the test system is rat neutrophils. As to the kind of experiment: Inhibitory effects on activity of rat neutrophils (release of super oxide anions). It counts as cell-based. The following applies: Neutrophil, stimulation with 0.3 μM calcium ionophore A23187, chemiluminescence, read-out: Action for suppressing release of super oxide anions from rat neutrophils IC50. The method, then: The release of super oxide anions was measured so as to study the inhibitory effects of the compound on inflammatory leukocytes, that is, neutrophils.
Blood sample was obtained from Wister rats anesthetized with ether. It was superposed on a blood cell separation solution (Polymorphoprep 1.113, made by Naicomet Co. (phonetic)) and the neutrophils were separated by centrifugation. The neutrophils were resuspended in a Hank's balanced salt solution at a concentration of 0.5×10^4 cell/ml. 0.1 mM of Lusigenin and the test substance dissolved in DMSO were added to 2 ml of the cell-suspension. The chemiluminescence generated by stimulation of 0.3 μM calcium ionophore A23187 was measured by a chemiluminescence reader so as to evaluate the release of super oxide anions.

For assay [2], the system named is Type IV PDE. As to the kind of experiment: Measurement of type IV PDE inhibiting activity. The assay is classed as biochemical. The settings on record: type IV PDE partially purified from neutrophils; 3H-cAMP substrate; 30 minutes; read-out: Type IV PDE Inhibitory activity IC50. The method, then: Type I, III, IV, and V PDE isozymes were prepared to study the PDE inhibiting activities and selectivities of the compound of the invention [Trends Pharmacol Sci., 12, 19-27 (1992)]. Type I PDE was purchased from Sigma Corp. Type III and V PDE isozymes were partially purified from rats platelets, and type IV PDE isozyme was partially purified from neutrophils. Each enzyme source was homogenized in a buffer (pH 6.5) containing 20 mM bisTris, 2 mM EDTA, 0.1 mM PMSF (phenylmethylsulfonyl fluoride), 5 mM 2-mercaptoethanol, 0.01 mM pepstatin, and 0.01 mM leupeptin and was centrifuged at 30,000G for 30 minutes to obtain a supernatant, which was applied to a column (1.5×20 cm) packed with an ion-exchange resin (Q-sepharose First Flow, Pharmacia Corp.) and was eluted with sodium acetate gradient of 0 to 1M. Partially purified isozymes were identified by observing the effects of conventional inhibitor.
Each PDE isozyme and test compounds dissolved in DMSO (i.e., dimethyl sulfoxide) were added to 50 mM Tris-HCl buffer containing 5 mM magnesium chloride. ^3 H-cAMP (for type III and IV PDE) or ^3 H-cGMP (for type I and V PDE) were added as substrates and were reacted for 30 minutes. The reaction was terminated by placing the test tube in boiling water of 100° C. for 5 minutes. The nucleotides formed by PDE were broken down by 5'-nucleotidase to ^3 H-adenosine or 3H-guanosine. The unreacted substrate and reaction product were separated through a column packed with an ion-exchange resin (QAE sephadex). The eluted ^3 H-nucleoside was measured for its radioactivity by a liquid scintillation counter. The inhibiting activities of the compound of the present invention against types I, III and V are 1/10 or less than that against type IV.

In assay [3] the test system is antigen-induced bronchospasm. As to the kind of experiment: Inhibitory effect on antigen-induced bronchospasm (anti-asthmatic action). The assay is classed as in vivo. The settings on record: Cavia porcellus, iv; ovalbumin-sensitized Hartley male guinea pig; intravenously 10 minutes before 0.2 mg/kg OA i.v.; Konzett-Roessler method; read-out: Action for suppressing antigen-induced bronchospasms ED50. The method, then:
A Hartley male guinea pig was sensitized by intramuscular administration of […] Ovalbumin (OA) on first day and fourth day, and used after 24th day. A trachial canula was introduced in the guinea pig anesthetized with pentobarbital and artificial ventilation was performed 25 to 29 days after the first sensitization. The overflow of the ventilation was measured by the Konzett-Roessler method, while 0.2 mg/kg OA were administered intravenously. The test compound was dissolved in polyethylene glycol 400 and intravenously administered 10 minutes before administration of the antigens.

What is called pIC50 is −log10 of the IC50, conventionally taken in molar units. One may read the ED50 as the midpoint of the dose-response relation.

pIC50: −log10 of the molar value.

As to `COc1ccc(C2C=NNC(=O)C2)cc1OC` (stereo not shown) [Compound No. 1, 5-(3,4-dimethoxyphenyl)-2,3,4,5-tetrahydropyridazin-3-one], the pIC50 was 4.85 in assay [1] and 5.03 in assay [2].

In the case of `COc1ccc(C2C=NN(c3ccccc3)C(=O)C2)cc1OC` (stereo not shown) [Compound No. 2, 5-(3,4-dimethoxyphenyl)-2-phenyl-2,3,4,5-tetrahydropyridazin-3-one], the values for the negative logarithm of the IC50 (pIC50) in assay [1] and in assay [2] were 5.77 and 5.38, respectively.

For `COc1ccc(C2C=NNC(=O)C2)cc1OC1CCCC1` (stereo not shown) [Compound No. 3, 5-(3-cyclopentyloxy-4-methoxyphenyl)-2,3,4,5-tetrahydropyridazin-3-one], the pIC50 in assay [1] was 7.52; in assay [2], 6.38. Moreover, the median effective dose (ED50) in assay [3] was 0.4 mg/kg.

On to `COc1ccc(C2CNNC(=O)C2)cc1OC1CCCC1` (stereo not shown) [Compound No. 4, 5-(3-cyclopentyloxy-4-methoxyphenyl)hexahydropyridazin-3-one], for which the ED50 in assay [3] was 2.1 mg/kg. The pIC50 in assay [2] was 5.60.

For `COc1ccc(C2C=NN(C)C(=O)C2)cc1OC1CCCC1` (stereo not shown) [Compound No. 5, 5-(3-cyclopentyloxy-4-methoxyphenyl)-2-methyl-2,3,4,5-tetrahydropyridazin-3-one], the negative logarithm of the IC50 (pIC50) in assay [1] is 6.37; in assay [2], 6.17.

Consider `COc1ccc(C2C=NN(Cc3ccccc3)C(=O)C2)cc1OC1CCCC1` (stereo not shown) [Compound No. 6, 2-benzyl-5-(3-cyclopentyloxy-4-methoxyphenyl)-2,3,4,5-tetrahydropyridazin-3-one], for which the values for the pIC50 in assay [1] and in assay [2] were 6.89 and 6.74, respectively. Besides, the ED50 in assay [3] was determined as 3.2 mg/kg.

Turning to `COc1ccc(C2C=NNC(=O)C2)cc1OCc1ccccc1` (stereo not shown) [Compound No. 7, 5-(3-benzyloxy-4-methoxyphenyl)-2,3,4,5-tetrahydropyridazin-3-one], the pIC50 in assay [2] was 5.06.

As for `COc1ccc(C2C=NNC(=O)C2)cc1OCCc1ccccc1` (stereo not shown) [Compound No. 8, 5-(4-methoxy-3-phenethyloxyphenyl)-2,3,4,5-tetrahydropyridazin-3-one], the median effective dose (ED50) in assay [3] turned out to be 4.2 mg/kg. For the same compound, the negative logarithm of the IC50 (pIC50) in assay [2] was 5.80.

For the compound `COc1ccc(C2C=NNC(=O)C2)cc1OC1Cc2ccccc2C1` (stereo not shown) [Compound No. 9, 5-[3-(2-indanyloxy)-4-methoxyphenyl]-2,3,4,5-tetrahydropyridazin-3-one], the pIC50 in assay [2] is 6.77.

As for `COc1ccc(C2C=NNC(=O)C2)cc1OCC1CC1` (stereo not shown) [Compound No. 10, 5-(3-cyclopropylmethyloxy-4-methoxyphenyl)-2,3,4,5-tetrahydropyridazin-3-one], the ED50 in assay [3] worked out at 0.074 mg/kg. Moreover, the pIC50 in assay [2] was 5.80.

Take `COc1ccc(C2C=NNC(=O)C2)cc1OCC1(C)CC1` (stereo not shown) [Compound No. 11, 5-[4-methoxy-3-[(1-methylcyclopropyl)methyloxy]phenyl]2,3,4,5-tetrahydropyridazin-3-one]: the median effective dose (ED50) in assay [3] was 0.82 mg/kg. Also, the negative logarithm of the IC50 (pIC50) in assay [2] was 5.92.

As for `COc1ccc(C2C=NNC(=O)C2)cc1OCC(C)C` (stereo not shown) [Compound No. 12, 5-[4-methoxy-3-(2-methylpropoxy)phenyl]-2,3,4,5-tetrahydropyridazin-3-one], the ED50 in assay [3] came to 1.05 mg/kg. In addition, the pIC50 in assay [2] was 5.96.

Take `CCCCOc1cc(C2C=NNC(=O)C2)ccc1OC` (stereo not shown) [Compound No. 13, 5-(3-butoxy-4-methoxyphenyl)-2,3,4,5-tetrahydropyridazin-3-one]: the ED50 in assay [3] was 1.4 mg/kg. Also, in assay [2], the negative logarithm of the IC50 (pIC50) is 5.47.

Take `CCC(CC)COc1cc(C2C=NNC(=O)C2)ccc1OC` (stereo not shown) [Compound No. 14, 5-[3-(2-ethylbutoxy)-4-methoxyphenyl]-2,3,4,5-tetrahydropyridazin-3-one]: the pIC50 in assay [2] was 5.64.

`COc1ccc(C2C=NNC(=O)C2)cc1OCC(C)(C)C` (stereo not shown) [Compound No. 15, 5-[3-(2,2-dimethylpropoxy)-4-methoxyphenyl]-2,3,4,5-tetrahydropyridazin-3-one]: the negative-log IC50 (pIC50) in assay [2] was 5.32.

For the compound `COc1ccc(C2C=NNC(=O)C2)cc1OCCCCCc1ccccc1` (stereo not shown) [Compound No. 16, 5-[4-methoxy-3-(5-phenylpentyloxy)phenyl]-2,3,4,5-tetrahydropyridazin-3-one], in assay [2], the pIC50 was 6.48.

For `COc1ccc(C2C=NN(C)C(=O)C2)cc1OC1Cc2ccccc2C1` (stereo not shown) [Compound No. 17, 5-[3-(2-indanyloxy)-4-methoxyphenyl]-2-methyl-2,3,4,5-tetrahydropyridazin-3-one], the pIC50 in assay [2] is 6.20.

For the compound `COc1ccc(C2C=NN(C)C(=O)C2)cc1OCC1CC1` (stereo not shown) [Compound No. 18, 5-(3-cyclopropylmethyloxy-4-methoxyphenyl) -2-methyl-2,3,4,5-tetrahydropyridazin-3-one], the ED50 in assay [3] was determined as 0.12 mg/kg. Also, the negative-log IC50 (pIC50) in assay [2] is 5.34.

For `COc1ccc(C2C=NN(C)C(=O)C2)cc1OCCc1ccccc1` (stereo not shown) [Compound No. 19, 5-(4-methoxy-3-phenethyloxyphenyl) -2-methyl-2,3,4,5-tetrahydropyridazin-3-one], the pIC50 in assay [2] is 5.57.

For the compound `COc1ccc(C2C=NN(C)C(=O)C2)cc1OCC(C)C` (stereo not shown) [Compound No. 20, 5-[4-methoxy-3-(2-methylpropoxy)phenyl]-2-methyl-2,3,4,5-tetrahydropyridazin-3-one], in assay [3], the ED50 came to 0.97 mg/kg. The pIC50 in assay [2] was 5.64.

Take `COc1ccc(C2C=NN(C)C(=O)C2)cc1OCC(C)(C)C` (stereo not shown) [Compound No. 21, 5-[3-(2,2-dimethylpropoxy)-4-methoxyphenyl]-2-methyl-2,3,4,5-tetrahydropyridazin-3-one]: the pIC50 in assay [2] is 5.41.

Turning to `COc1ccc(C2C=NN(C)C(=O)C2)cc1OCC1(C)CC1` (stereo not shown) [Compound No. 22, 5-[4-methoxy-3-[(1-methylcyclopropyl)methyloxy]phenyl]-2-methyl-2,3,4,5-tetrahydropyridazin-3-one], the ED50 in assay [3] stood at 2.37 mg/kg. Moreover, the pIC50 in assay [2] was 5.57.

For `CCCCOc1cc(C2C=NN(C)C(=O)C2)ccc1OC` (stereo not shown) [Compound No. 23, 5-(3-butoxy-4-methoxyphenyl)-2-methyl-2,3,4,5-tetrahydropyridazin-3-one], the ED50 in assay [3] is 0.53 mg/kg. Moreover, in assay [2], the negative logarithm of the IC50 (pIC50) was 5.20.

Turning to `CCC(CC)COc1cc(C2C=NN(C)C(=O)C2)ccc1OC` (stereo not shown) [Compound No. 24, 5-[4-methoxy-3-(2-ethylbutoxy)phenyl]-2-methyl-2,3,4,5-tetrahydropyridazin-3-one], the pIC50 in assay [2] was 6.47.

With `COc1ccc(C2C=NNC(=O)C2)cc1OCC1(c2ccccc2)CC1` (stereo not shown) [Compound No. 25, 5-[4-methoxy-3-[(1-phenylcyclopropyl)methyloxy]phenyl]-2,3,4,5-tetrahydropyridazin-3-one], the pIC50 in assay [2] is 6.12.

As for `COc1ccc(C2C=NN(C)C(=O)C2)cc1OCC1(c2ccccc2)CC1` (stereo not shown) [Compound No. 26, 5-[4-methoxy-3-[(1-phenylcyclopropyl)methyloxy]phenyl]-2-methyl-2,3,4,5-tetrahydropyridazin-3-one], in assay [2], the negative-log IC50 (pIC50) was 5.85.

For `COc1ccc(C2CC(=O)NN=C2c2ccccc2)cc1OC1CCCC1` (stereo not shown) [Compound No. 28, 5-(3-cyclopentyloxy-4-methoxyphenyl)-6-phenyl-2,3,4,5-tetrahydropyridazin-3-one], the pIC50 in assay [2] is 4.72.

On to `COc1ccc(C2CC(=O)NN=C2C)cc1OC` (stereo not shown) [compound 27, 5-(3,4-dimethoxyphenyl)-6-methyl-2,3,4 5-tetrahydropyridazin-3-one], for which the values for the pIC50 in assay [1] and in assay [2] were 4.82 and 4.74, respectively.
